Where two headings read alike, the source gives them in different places.
How the values were obtained:
[1] = target: human SOS1 (nucleotide exchange of K-Ras^G12C) (Homo sapiens, UniProt Q07889); test: Biochemical assay 2: K-Ras^G12C activation assay by hSOS1 at high GTP concentration (HTRF); conditions: high GTP; for IC50: read-out: Assay 2 (KRAS-Activation by SOS high GTP) activity expressed as IC50
[2] = target: Epidermal Growth Factor Receptor (EGFR) (Homo sapiens (Human), UniProt P00533); test: EGFR kinase assay (TR-FRET); type: biochemical; conditions: read-out: EGFR kinase inhibition IC50
Summary of the method: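 EGFR purified from A431 cells was preincubated with compound 15 min at 22° C in pH 7.0 Hepes buffer with MgCl2, MnCl2 and vanadate before reaction with a biotinylated peptide. After EDTA stop, phosphopeptide was detected by TR-FRET (anti-phosphotyrosine Tb-cryptate, streptavidin-XL665) as the 665/620 nm emission ratio.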

Sequence of Epidermal Growth Factor Receptor (EGFR) (P00533 25-1210): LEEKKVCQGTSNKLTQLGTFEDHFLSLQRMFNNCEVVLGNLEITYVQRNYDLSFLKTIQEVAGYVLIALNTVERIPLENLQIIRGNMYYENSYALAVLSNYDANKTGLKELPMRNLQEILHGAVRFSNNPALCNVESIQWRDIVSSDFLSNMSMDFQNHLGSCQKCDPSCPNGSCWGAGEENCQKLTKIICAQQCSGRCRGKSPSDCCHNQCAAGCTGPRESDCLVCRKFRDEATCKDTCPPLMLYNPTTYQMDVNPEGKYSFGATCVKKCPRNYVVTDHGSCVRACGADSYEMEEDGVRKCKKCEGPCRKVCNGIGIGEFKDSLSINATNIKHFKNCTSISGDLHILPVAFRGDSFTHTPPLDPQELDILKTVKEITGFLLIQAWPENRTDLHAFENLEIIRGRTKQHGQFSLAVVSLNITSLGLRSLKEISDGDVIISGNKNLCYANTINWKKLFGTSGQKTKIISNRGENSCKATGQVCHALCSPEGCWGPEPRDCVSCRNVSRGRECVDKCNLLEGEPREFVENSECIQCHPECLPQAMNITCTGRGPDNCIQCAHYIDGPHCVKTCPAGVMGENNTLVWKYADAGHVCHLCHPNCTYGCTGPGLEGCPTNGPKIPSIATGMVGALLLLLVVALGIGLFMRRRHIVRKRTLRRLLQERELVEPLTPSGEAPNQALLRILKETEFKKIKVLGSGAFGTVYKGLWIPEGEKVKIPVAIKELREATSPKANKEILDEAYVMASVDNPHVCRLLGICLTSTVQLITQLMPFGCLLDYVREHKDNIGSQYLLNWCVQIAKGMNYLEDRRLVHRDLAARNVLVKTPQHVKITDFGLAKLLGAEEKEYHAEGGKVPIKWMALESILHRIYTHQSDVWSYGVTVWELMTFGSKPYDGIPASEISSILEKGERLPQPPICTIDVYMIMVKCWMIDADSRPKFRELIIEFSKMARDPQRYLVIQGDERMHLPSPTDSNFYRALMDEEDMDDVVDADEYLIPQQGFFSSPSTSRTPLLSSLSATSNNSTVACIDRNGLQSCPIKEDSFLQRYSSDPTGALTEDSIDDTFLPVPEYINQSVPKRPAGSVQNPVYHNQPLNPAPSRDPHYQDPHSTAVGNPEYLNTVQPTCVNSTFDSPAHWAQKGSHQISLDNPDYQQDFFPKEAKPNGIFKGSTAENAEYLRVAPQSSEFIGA

SMILES | IC50 [1] | IC50 ([2]; unit inferred) | IC50 ([2]; values given in μM) | inhibition at 20 µM ([1]; read-out: Assay 2 (KRAS-Activation by SOS high GTP) activity expressed as % inhibition at 20 μM, at 20 μM)
COc1cc2nc(C)nc(NC(C)c3cccc(Oc4ccccc4)c3)c2cc1OC (single isomer, unassigned; enantiomer 1) [Example 228, 6,7-dimethoxy-2-methyl-N-[1-(3-phenoxyphenyl)ethyl]quinazolin-4-amine, Enantiomer 1] | 0.647 µM | 0.341 µM | – | –
COc1cc2nc(C)nc(NC(C)c3cccc4cccnc34)c2cc1OC (single isomer, unassigned; enantiomer 1) [Example 230, 6,7-dimethoxy-2-methyl-N-[1-(quinolin-8-yl)ethyl]quinazolin-4-amine, Enantiomer 1] | 6.69 µM | – | > 20 µM | –
COc1cc2nc(C)nc(N[C@H](C)c3cccc(Cl)c3)c2cc1OC [Example 2, N-[(1R)-1-(3-chlorophenyl)ethyl]-6,7-dimethoxy-2-methylquinazolin-4-amine] | 0.207 µM | 16.3 µM | – | –
COC(=O)c1cc2c(C(C)Nc3nc(C)nc4cc(OC)c(OC)cc34)cccc2s1 (stereo not shown) [Example 3, methyl 4-{1-[(6,7-dimethoxy-2-methylquinazolin-4-yl)amino]ethyl}-1-benzothiophene-2-carboxylate] | 0.115 µM | – | > 20 µM | –
COc1cc2nc(C)nc(NC(C)c3cccc4ccoc34)c2cc1OC (stereo not shown) [Example 4, N-[1-(1-benzofuran-7-yl)ethyl]-6,7-dimethoxy-2-methylquinazolin-4-amine] | 0.243 µM | – | > 20 µM | –
COc1cc2nc(C)nc(NC(C)c3ccc(F)c4[nH]ncc34)c2cc1OC (stereo not shown) [Example 5, N-[1-(7-fluoro-1H-indazol-4-yl)ethyl]-6,7-dimethoxy-2-methylquinazolin-4-amine] | 1.3 µM | – | > 20 µM | –
COc1cc2nc(C)nc(NC(C)c3cc(F)cc4[nH]ncc34)c2cc1OC (stereo not shown) [Example 6, N-[1-(6-fluoro-1H-indazol-4-yl)ethyl]-6,7-dimethoxy-2-methylquinazolin-4-amine] | 1.86 µM | – | > 20 µM | –
COc1cc2nc(C)nc(NC(C)c3cccc4cn(C)nc34)c2cc1OC (stereo not shown) [Example 8, 6,7-dimethoxy-2-methyl-N-[1-(2-methyl-2H-indazol-7-yl)ethyl]quinazolin-4-amine] | 19.8 µM | – | > 20 µM | –
COc1cc2nc(C)nc(NC(C)c3cccc4nn(C)cc34)c2cc1OC (stereo not shown) [Example 9, 6,7-dimethoxy-2-methyl-N-[1-(2-methyl-2H-indazol-4-yl)ethyl]quinazolin-4-amine] | 1.37 µM | – | > 20 µM | –
COc1cc2nc(C)nc(NC(C)c3cccc4cnn(C)c34)c2cc1OC (stereo not shown) [Example 10, 6,7-dimethoxy-2-methyl-N-[1-(1-methyl-1H-indazol-7-yl)ethyl]quinazolin-4-amine] | 1.27 µM | – | > 20 µM | –
COc1cc2nc(C)nc(NC(C)c3cccc4c3CCCC4)c2cc1OC (stereo not shown) [Example 11, 6,7-dimethoxy-2-methyl-N-[1-(5,6,7,8-tetrahydronaphthalen-1-yl)ethyl]quinazolin-4-amine] | 0.221 µM | – | > 20 µM | –
COc1cc2nc(C)nc(N[C@H](C)c3ccc(F)cc3)c2cc1OC [Example 12, N-[(1R)-1-(4-fluorophenyl)ethyl]-6,7-dimethoxy-2-methylquinazolin-4-amine] | 0.578 µM | – | > 20 µM | –
COc1cc2nc(C)nc(NC(C)c3cccc4[nH]nc(C)c34)c2cc1OC (stereo not shown) [Example 13, 6,7-dimethoxy-2-methyl-N-[1-(3-methyl-1H-indazol-4-yl)ethyl]quinazolin-4-amine] | 2.65 µM | – | > 20 µM | –
COc1cc2nc(C)nc(NC(C)c3cc4cccc(O)c4o3)c2cc1OC (stereo not shown) [Example 28, 2-{-[(6,7-dimethoxy-2-methyquinazolin-4-yl)amino]ethyl}-1-benzofuran-7-ol] | – | – | > 20 µM | 8%
COC(=O)c1ccccc1-c1ccc(C(C)Nc2nc(C)nc3cc(OC)c(OC)cc23)s1 (stereo not shown) [Example 178, methyl 2-(5-{1-[(6,7-dimethoxy-2-methylquinazolin-4-yl)amino]ethyl}thiophen-2-yl)benzoate] | 5.11 µM | – | > 20 µM | –
COc1cc2nc(C)nc(NC(C)c3ccc(-c4ccccc4CN4CCC(C(N)=O)CC4)s3)c2cc1OC (stereo not shown) [Example 179, 1-[2-(5-{1-[(6,7-dimethoxy-2-methylquinazolin-4-yl)amino]ethyl}thiophen-2-yl)benzyl]piperidine-4-carboxamide] | 0.245 µM | – | > 20 µM | –
COc1cc2nc(C)nc(NC(C)c3ccc(-c4ccccc4CCO)s3)c2cc1OC (stereo not shown) [Example 180, 2-[2-(5-{1-[(6,7-dimethoxy-2-methylquinazolin-4-yl)amino]ethyl}thiophen-2-yl)phenyl]ethanol] | 0.921 µM | – | > 20 µM | –
COc1cc2nc(C)nc(NC(C)c3ccc(-c4cccc(CCO)c4)s3)c2cc1OC (stereo not shown) [Example 181, 2-[3-(5-{1-[(6,7-dimethoxy-2-methylquinazolin-4-yl)amino]ethyl}thiophen-2-yl)phenyl]ethanol] | 6.51 µM | – | > 20 µM | –

SMILES | IC50 [1] | IC50 ([2]; unit inferred) | IC50 ([2]; values given in μM) | inhibition at 20 µM ([1]; read-out: Assay 2 (KRAS-Activation by SOS high GTP) activity expressed as % inhibition at 20 μM, at 20 μM)
COc1cc2nc(C)nc(NC(C)c3ccc(-c4ccccc4CN4CC5(COC5)C4)s3)c2cc1OC (stereo not shown) [Example 182, 6,7-di methoxy-2-methyl-N-[1-{5-[2-(2-oxa-6-azaspiro[3.3]hept-6-ylmethyl)phenyl]thiophen-2-yl}ethyl]quinazolin-4-amine] | 0.123 µM | – | > 20 µM | –
COc1cc2nc(C)nc(NC(C)c3cc(C)c(Br)s3)c2cc1OC (stereo not shown) [Example 183, N-[1-(5-bromo-4-methylthiophen-2-yl)ethyl]-6,7-dimethoxy-2-methylquinazolin-4-amine] | 4.2 µM | – | > 20 µM | –
COc1cc2nc(C)nc(NC(C)c3ccc(-c4ccccc4CN4CCCC4)s3)c2cc1OC (stereo not shown) [Example 184, 6,7-dimethoxy-2-methyl-N-[1-{5-[2-(pyrrolidin-1-ylmethyl)phenyl]thiophen-2-yl}ethyl]quinazolin-4-amine] | 0.106 µM | – | > 20 µM | –
COc1cc2nc(C)nc(NC(C)c3ccc(-c4ccccc4CN4CCC[C@H]4CN(C)C)s3)c2cc1OC (stereo partly drawn) [Example 185, N-[1-{5-[2-({(2S)-[(dimethylamino)methyl]pyrrolidin-1-yl}methyl)phenyl]thiophen-2-yl}ethyl]-6,7-dimethoxy-2-methylquinazolin-4-amine] | 0.344 µM | – | > 20 µM | –
Cc1nc(N[C@H](C)c2cccc3ccccc23)c2ccccc2n1 [Example 186, 2-methyl-N-[(1R)-1-(naphthalen-1-yl)ethyl]quinazolin-4-amine] | 3.31 µM | – | > 20 µM | –
COc1cc2nc(C)nc(N[C@H](C)c3ccc(Br)cc3)c2cc1OC [Example 187, N-[(1R)-1-(4-bromophenyl)ethyl]-6,7-dimethoxy-2-methylquinazolin-4-amine] | 0.562 µM | – | > 20 µM | –
COc1cc2nc(C)nc(N[C@H](C)c3ccc(S(C)(=O)=O)cc3)c2cc1OC [Example 188, 6,7-dimethoxy-2-methyl-N-{(1R)-1-[4-(methylsulfonyl)phenyl]ethyl}quinazolin-4-amine] | 16.7 µM | – | > 20 µM | –
COc1cc2nc(C)nc(N[C@H](C)c3cccc(C)c3)c2cc1OC [Example 190, 6,7-dimethoxy-2-methyl-N-[(1R)-1-(3-methylphenyl)ethyl]quinazolin-4-amine] | 0.153 µM | – | > 20 µM | –
COc1cc2nc(C)nc(N[C@H](C)c3cccc(Br)c3)c2cc1OC [Example 191, N-[(1R)-1-(3-bromophenyl)ethyl]-6,7-dimethoxy-2-methylquinazolin-4-amine] | 0.245 µM | – | > 20 µM | –
COc1cc2nc(C)nc(N[C@H](C)c3ccc(C(N)=O)cc3)c2cc1OC [Example 192, 4-{(1R)-1-[(6,7-dimethoxy-2-methylquinazolin-4-yl)amino]ethyl}benzamide] | 4.09 µM | – | > 20 µM | –
COc1cc2nc(C)nc(N[C@H](C)c3cccc(-c4ccccc4)c3)c2cc1OC [Example 193, N-[(1R)-1-(biphenyl-3-yl)ethyl]-6,7-dimethoxy-2-methylquinazolin-4-amine] | 0.405 µM | – | > 20 µM | –
COc1cc2nc(C)nc(N[C@H](C)c3cccc(C#N)c3)c2cc1OC [Example 194, 3-{(1R)-1-[(6,7-dimethoxy-2-methylquinazolin-4-yl)amino]ethyl}benzonitrile] | 0.594 µM | – | > 20 µM | –
COc1cc2nc(C)nc(N[C@H](C)c3ccc(C)cc3)c2cc1OC [Example 195, 6,7-dimethoxy-2-methyl-N-[(1R)-1-(4-methylphenyl)ethyl]quinazolin-4-amine] | 0.635 µM | – | > 20 µM | –
COc1cc2nc(C)nc(N[C@H](C)c3ccc(-c4ccccc4)cc3)c2cc1OC [Example 196, N-[(1R)-1-(biphenyl-4-yl)ethyl]-6,7-dimethoxy-2-methylquinazolin-4-amine] | 1.09 µM | – | > 20 µM | –
COc1cc2nc(C)nc(N[C@H](C)c3ccc(C4CC4)cc3)c2cc1OC [Example 197, N-[(1R)-1-(4-cyclopropylphenyl)ethyl]-6,7-dimethoxy-2-methylquinazolin-4-amine] | 0.303 µM | – | > 20 µM | –
COc1cc2nc(C)nc(N[C@H](C)c3cccc(S(C)(=O)=O)c3)c2cc1OC [Example 198, 6,7-dimethoxy-2-methyl-N-{(1R)-1-[3-(methylsulfonyl)phenyl]ethyl}quinazolin-4-amine] | 0.518 µM | – | > 20 µM | –
COc1cc2nc(C)nc(N[C@H](C)c3cccc(C(N)=O)c3)c2cc1OC [Example 199, 3-{(1R)-1-[(6,7-dimethoxy-2-methylquinazolin-4-yl)amino]ethyl}benzamide] | 1.42 µM | – | > 20 µM | –
